Measured values: patent US11382918B2, “Methods for treating Huntington's Disease” (PTC Therapeutics, Inc., priority 2017, dated 2022)
Where a name gives a salt, the structure may show the parent alone.

The compounds below were run on Endogenous Huntingtin Protein (HTT) (assay: Endogenous Huntingtin Protein Assay (ELISA-based MSD electrochemiluminescence)). Settings: Table 1.
Assay type: cell-based
In short: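 MSD electrochemiluminescence sandwich ELISA for endogenous HTT: sample lysates captured overnight at 4 °C on MW1 (expanded polyglutamine) or MAB2166 antibody. Detection used rabbit monoclonal #5656S, then goat anti-rabbit SULFO-TAG antibody, each 1 h at room temperature.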

| SMILES | IC50 [nM] |
| --- | --- |
| Cc1cn2ccc(-c3cc(=O)n4cc(C5CCNCC5)ccc4n3)cc2n1 [compound 556, 2-(2-methylimidazo[1,2-a]pyridin-7-yl)-7-(piperidin-4-yl)-4H-pyrido[1,2-a]pyrimidin-4-one] | 3000 to 33000 |
| Cc1cc(-c2cc(=O)n3cc(N4CCNCC4)ccc3n2)cc2cnn(C)c12 [compound 776, 2-(1,7-dimethyl-1H-indazol-5-yl)-7-(piperazin-1-yl)-4H-pyrido[1,2-a]pyrimidin-4-one] | 3000 to 33000 |
| CN1CC=C(c2ccc3nc(-c4ccc(N(C)C)nc4)cc(=O)n3c2)CC1 [compound 450, 2-[6-(dimethylamino)pyridin-3-yl]-7-(1-methyl-1,2,3,6-tetrahydropyridin-4-yl)-4H-pyrido[1,2-a]pyrimidin-4-one] | 3000 to 33000 |
| Cc1cn2nc(-c3cc(=O)n4cc(N5CCC(C)(N)CC5)ccc4n3)cc2c(C)n1 [compound 584, 7-(4-amino-4-methylpiperidin-1-yl)-2-(4,6-dimethylpyrazolo[1,5-a]pyrazin-2-yl)-4H-pyrido[1,2-a]pyrimidin-4-one] | 3000 to 33000 |
| Cc1cc(=O)n2cc(-c3cc(=O)n4cc(N5CCNCC5)ccc4n3)ccc2n1 [compound 837, 2′-methyl-7-(piperazin-1-yl)-4H,4′H-2,7′-bipyrido[1,2-a]pyrimidine-4,4′-dione] | 3000 to 33000 |
| CCN1CCC(c2cn3c(=O)cc(-c4ccc5nc(C)cn5c4)nc3cn2)CC1 [compound 580, 7-(1-ethylpiperidin-4-yl)-2-(2-methylimidazo[1,2-a]pyridin-6-yl)-4H-pyrazino[1,2-a]pyrimidin-4-one] | 3000 to 33000 |
| Cc1cn2nc(-c3cc(=O)n4cc(C5=CCN(C)CC5)ccc4n3)cc2c(C)n1 [compound 350, 2-(4,6-dimethylpyrazolo[1,5-a]pyrazin-2-yl)-7-(1-methyl-1,2,3,6-tetrahydropyridin-4-yl)-4H-pyrido[1,2-a]pyrimidin-4-one] | 3000 to 33000 |
| COc1cncc(-c2cc(=O)n3cc(N4CCNCC4)ccc3n2)c1 [compound 229, 2-(5-methoxypyridin-3-yl)-7-(piperazin-1-yl)-4H-pyrido[1,2-a]pyrimidin-4-one] | 3000 to 33000 |
| Cc1nc(C2=CCNCC2)cn2c(=O)cc(-c3ccc4nn(C)cc4c3)nc12 [compound 791, 9-methyl-2-(2-methyl-2H-indazol-5-yl)-7-(1,2,3,6-tetrahydropyridin-4-yl)-4H-pyrazino[1,2-a]pyrimidin-4-one] | < 100 |
| Cc1ccc2nc(-c3cc(=O)n4cc(N5CCN(C)CC5)ccc4n3)cn2c1 [compound 836, 2-(6-methylimidazo[1,2-a]pyridin-2-yl)-7-(4-methylpiperazin-1-yl)-4H-pyrido[1,2-a]pyrimidin-4-one] | 3000 to 33000 |
| Cc1cn2nc(-c3cc(=O)n4cc(N5CCNCC5)ccc4n3)cc2c(C2CC2)n1 [compound 683, 2-(4-cyclopropyl-6-methylpyrazolo[1,5-a]pyrazin-2-yl)-7-(piperazin-1-yl)-4H-pyrido[1,2-a]pyrimidin-4-one] | 3000 to 33000 |
| O=c1cc(-c2ccc(-c3ccnc(O)c3)cc2O)nc2ccc(C3=CCNCC3)cn12 [compound 850, 2-[2-hydroxy-4-(2-hydroxypyridin-4-yl)phenyl]-7-(1,2,3,6-tetrahydropyridin-4-yl)-4H-pyrido[1,2-a]pyrimidin-4-one trifluoroacetate (1:1)] | 3000 to 33000 |
| CCc1nc(C)cn2cc(-c3cc(=O)n4cc(N5CCCNCC5)ccc4n3)cc12 [compound 749, 7-(1,4-diazepan-1-yl)-2-(1-ethyl-3-methylpyrrolo[1,2-a]pyrazin-7-yl)-4H-pyrido[1,2-a]pyrimidin-4-one] | 3000 to 33000 |

The remaining lines, values ahead:

| IC50 [nM] | SMILES |
| --- | --- |
| 3000 to 33000 | O=c1cc(-c2ccn3ccnc3c2)nc2ccc(N3CCNCC3)cn12 [compound 107, 2-(imidazo[1,2-a]pyridin-7-yl)-7-(piperazin-1-yl)-4H-pyrido[1,2-a]pyrimidin-4-one] |
| < 100 | CCc1cc(-c2cc(=O)n3cc(C4CCNCC4)ccc3n2)cn2cc(C)nc12 [compound 696, 2-(8-ethyl-2-methylimidazo[1,2-a]pyridin-6-yl)-7-(piperidin-4-yl)-4H-pyrido[1,2-a]pyrimidin-4-one] |
| 3000 to 33000 | Cc1cc(-c2cc(=O)n3cc(C4CC(C)(C)NC(C)(C)C4)cc(C)c3n2)cc2cn(C)nc12 [compound 866, 2-(2,7-dimethyl-2H-indazol-5-yl)-9-methyl-7-(2,2,6,6-tetramethylpiperidin-4-yl)-4H-pyrido[1,2-a]pyrimidin-4-one] |
| < 100 | CCN1CCC(c2cc(C)c3nc(-c4ccc5nn(C)cc5c4)cc(=O)n3c2)CC1 [compound 719, 7-(1-ethylpiperidin-4-yl)-9-methyl-2-(2-methyl-2H-indazol-5-yl)-4H-pyrido[1,2-a]pyrimidin-4-one] |
| 1000 to 3000 | Cc1cn2nc(-c3cc(=O)n4cc(N5CC(CN(C)C)C5)ccc4n3)cc2c(C)n1 [compound 780, 7-{3-[(dimethylamino)methyl]azetidin-1-yl}-2-(4,6-dimethylpyrazolo[1,5-a]pyrazin-2-yl)-4H-pyrido[1,2-a]pyrimidin-4-one] |
| 1000 to 3000 | CCN1CCC(c2cc(C)c3nc(-c4cc5c(C)nc(C)cn5n4)cc(=O)n3c2)CC1 [compound 702, 2-(4,6-dimethylpyrazolo[1,5-a]pyrazin-2-yl)-7-(1-ethylpiperidin-4-yl)-9-methyl-4H-pyrido[1,2-a]pyrimidin-4-one] |
| 500 to 1000 | Cc1cn2cc(-c3cc(=O)n4cc(C5CCNCC5)ncc4n3)ccc2n1 [compound 585, 2-(2-methylimidazo[1,2-a]pyridin-6-yl)-7-(piperidin-4-yl)-4H-pyrazino[1,2-a]pyrimidin-4-one] |
| 1000 to 3000 | Cc1cn2nc(-c3cc(=O)n4cc(C5CCNCC5)cc(C)c4n3)cc2c(C)n1 [compound 671, 2-(4,6-dimethylpyrazolo[1,5-a]pyrazin-2-yl)-9-methyl-7-(piperidin-4-yl)-4H-pyrido[1,2-a]pyrimidin-4-one] |
| 500 to 1000 | Cc1cn2cc(-c3cc(=O)n4cc(N5CCN6CCC[C@@H]6C5)ccc4n3)cc(F)c2n1 [compound 272, 2-(8-fluoro-2-methylimidazo[1,2-a]pyridin-6-yl)-7-[(8aR)-hexahydropyrrolo[1,2-a]pyrazin-2(1H)-yl]-4H-pyrido[1,2-a]pyrimidin-4-one] |
| 1000 to 3000 | Cc1cn2cc(-c3cc(=O)n4cc(C5CCN(CCO)CC5)ncc4n3)cc(Cl)c2n1 [compound 599, 2-(8-chloro-2-methylimidazo[1,2-a]pyridin-6-yl)-7-[1-(2-hydroxyethyl)piperidin-4-yl]-4H-pyrazino[1,2-a]pyrimidin-4-one] |
| 100 to 500 | Cc1cn2cc(-c3cc(=O)n4cc(N5CCN[C@H](C)C5)ccc4n3)cc2c(C)n1 [compound 713, 2-(1,3-dimethylpyrrolo[1,2-a]pyrazin-7-yl)-7-[(3R)-3-methylpiperazin-1-yl]-4H-pyrido[1,2-a]pyrimidin-4-one] |
| 500 to 1000 | CCCc1nc(C)cn2nc(-c3cc(=O)n4cc(C5CCNCC5)ccc4n3)cc12 [compound 766, 2-(6-methyl-4-propylpyrazolo[1,5-a]pyrazin-2-yl)-7-(piperidin-4-yl)-4H-pyrido[1,2-a]pyrimidin-4-one] |
| < 100 | Cc1nc(C2CCNCC2)cn2c(=O)cc(-c3ccc4nn(C)cc4c3)nc12 [compound 796, 9-methyl-2-(2-methyl-2H-indazol-5-yl)-7-(piperidin-4-yl)-4H-pyrazino[1,2-a]pyrimidin-4-one] |
